Source: patent US11795171B2, “Pyrrolotriazinones and imidazotriazinones as ubiquitin-specific protease 7 inhibitors” (Valo Health, Inc., priority 2014, dated 2023)

Molecular target: USP7 (Homo sapiens (Human), UniProt Q93009)
Assay: USP7 Assay B (Ubitquin-Rhodamine110 Assay)
Assay type: biochemical
Details: Ub-Rh110 substrate 25 nM
Experimental: Stock compound solutions were stored at −20° C. as 10 mM in DMSO. […] Prestamped assay plates were allowed to come to room temperature on the day of the assay. For the screen, 100 nL of 2 mM was pre-dispensed for a final screening concentration of 10 μM (DMSO(fc)=0.5%). […] Unless otherwise indicated, all follow-up assays were run on triplecate plates. […] Pre-stamped with compounds were either not preincubated or preincubated with USP7 between 30 to 120 minutes prior to the addition of 10 μL of 2×Ub-Rh110 to compound plates. Plates were incubated stacked for either 23 or 45 minutes at room temperature before fluorescence was read on the Envision (Excitation at 485 nm and Emission at 535 nm; Perkin Elmer) or on the PheraSTAR (Excitation at 485 nm and Emission at 535 nm; BMG Labtech).
Data from USP7 Assays A and B were reported as percent inhibition (inh) compared with control wells based on the following equation: % inh=1−((FLU−AveLow)/(AveHigh−AveLow)) where FLU=measured Fluorescence (See Tables 2 and 3). AveLow=average Fluorescence of no enzyme control (n=16). AveHigh=average Fluorescence of DMSO control (n=16). IC50 values were determined by curve fitting of the standard 4 parameter logistic fitting algorithm included in the Activity Base software package: IDBS XE Designer Model205. Data is fitted using the Levenburg Marquardt algorithm.

Sequence of USP7 (Q93009 208-1102): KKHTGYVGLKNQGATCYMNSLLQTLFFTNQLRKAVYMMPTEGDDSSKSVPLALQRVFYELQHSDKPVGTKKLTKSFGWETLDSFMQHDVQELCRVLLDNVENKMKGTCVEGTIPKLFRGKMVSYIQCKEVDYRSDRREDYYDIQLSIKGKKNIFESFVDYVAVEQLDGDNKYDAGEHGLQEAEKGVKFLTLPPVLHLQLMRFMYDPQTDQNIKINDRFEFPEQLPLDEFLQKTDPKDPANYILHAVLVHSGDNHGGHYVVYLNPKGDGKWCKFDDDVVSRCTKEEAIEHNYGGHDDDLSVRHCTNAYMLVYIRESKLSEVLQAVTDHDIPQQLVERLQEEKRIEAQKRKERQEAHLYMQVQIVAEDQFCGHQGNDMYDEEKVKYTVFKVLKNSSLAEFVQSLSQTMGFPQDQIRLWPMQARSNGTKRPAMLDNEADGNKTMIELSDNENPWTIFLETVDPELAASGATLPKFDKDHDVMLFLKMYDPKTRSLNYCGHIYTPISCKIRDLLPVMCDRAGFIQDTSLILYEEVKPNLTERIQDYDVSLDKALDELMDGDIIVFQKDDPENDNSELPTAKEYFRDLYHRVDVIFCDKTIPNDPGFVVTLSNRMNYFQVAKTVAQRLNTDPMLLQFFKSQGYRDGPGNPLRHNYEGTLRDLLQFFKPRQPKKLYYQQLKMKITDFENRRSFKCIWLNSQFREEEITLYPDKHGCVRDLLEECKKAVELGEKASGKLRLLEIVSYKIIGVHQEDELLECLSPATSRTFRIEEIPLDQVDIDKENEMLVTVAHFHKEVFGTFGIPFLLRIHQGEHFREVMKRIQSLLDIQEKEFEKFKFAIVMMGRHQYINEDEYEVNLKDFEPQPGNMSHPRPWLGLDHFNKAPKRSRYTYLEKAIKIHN

SMILES | IC50 [µM]
O=C(c1ccc(Cn2cccn2)cc1)N1CCC(O)(Cn2cnn3cccc3c2=O)CC1 [Compound I-65, 3-((1-(4-((1H-pyrazol-1-yl)methyl)benzoyl)-4-hydroxypiperidin-4-yl)methyl)pyrrolo[2,1-f][1,2,4]triazin-4(3H)-one] | 1 to 10
O=C(Nc1cc2c(=O)n(CC3(O)CCN(C(=O)C4CC4)CC3)cnn2c1)c1ccccc1OC(F)(F)F [Compound I-110, N-(3-((1-(cyclopropanecarbonyl)-4-hydroxypiperidin-4-yl)methyl)-4-oxo-3,4-dihydropyrrolo[2,1-f][1,2,4]triazin-6-yl)-2-(trifluoromethoxy)benzamide] | > 10
C[C@@H](NC(=O)Nc1cc2c(=O)n(CC3(O)CCN(C(=O)C4CC4)CC3)cnn2c1)c1ccccc1 [Compound I-95, (R)-1-(3-((1-(cyclopropanecarbonyl)-4-hydroxypiperidin-4-yl)methyl)-4-oxo-3,4-dihydropyrrolo[2,1-f][1,2,4]triazin-6-yl)-3-(1-phenylethyl)urea] | > 10
O=C(c1cccc(-c2ccccc2F)c1)N1CCC(O)(Cn2cnn3cccc3c2=O)CC1 [Compound I-29, 3-((1-(2′-fluoro-[1,1′-biphenyl]-3-carbonyl)-4-hydroxypiperidin-4-yl)methyl)pyrrolo[2,1-f][1,2,4]triazin-4(3H)-one] | 1 to 10
O=C(Nc1cc2c(=O)n(CC3(O)CCN(C(=O)C4CC4)CC3)cnn2c1)c1ccc(C(F)(F)F)cc1 [Compound I-102, N-(3-((1-(cyclopropanecarbonyl)-4-hydroxypiperidin-4-yl)methyl)-4-oxo-3,4-dihydropyrrolo[2,1-f][1,2,4]triazin-6-yl)-4-(trifluoromethyl)benzamide] | > 10
O=C(c1ccccc1-c1ccccc1)N1CCC(O)(Cn2cnn3cccc3c2=O)CC1 [Compound I-2, 3-((1-([1,1′-biphenyl]-2-carbonyl)-4-hydroxypiperidin-4-yl)methyl)pyrrolo[2,1-f][1,2,4]triazin-4(3H)-one] | > 10
COc1cccc(NC(=O)Nc2cc3c(=O)n(CC4(O)CCN(C(=O)C5CC5)CC4)cnn3c2)c1 [Compound I-101, 1-(3-((1-(cyclopropanecarbonyl)-4-hydroxypiperidin-4-yl)methyl)-4-oxo-3,4-dihydropyrrolo[2,1-f][1,2,4]triazin-6-yl)-3-(3-methoxyphenyl)urea] | > 10
Cc1ccc(NC(=O)Nc2cc3c(=O)n(CC4(O)CCN(C(=O)C5CC5)CC4)cnn3c2)cc1 [Compound I-89, 1-(3-((1-(cyclopropanecarbonyl)-4-hydroxypiperidin-4-yl)methyl)-4-oxo-3,4-dihydropyrrolo[2,1-f][1,2,4]triazin-6-yl)-3-(p-tolyl)urea] | > 10
CC(CC(=O)Nc1cc2c(=O)n(CC3(O)CCN(C(=O)C4CC4)CC3)cnn2c1)c1ccc(Cl)cc1 (centres unmarked) [Compound I-113, 3-(4-chlorophenyl)-N-(3-((1-(cyclopropanecarbonyl)-4-hydroxypiperidin-4-yl)methyl)-4-oxo-3,4-dihydropyrrolo[2,1-f][1,2,4]triazin-6-yl)butanamide] | > 10
CNC(=O)Nc1cc2c(=O)n(CC3(O)CCN(C(=O)C[C@@H](C)c4ccccc4)CC3)cnn2c1 [Compound I-82, (R)-1-(3-((4-hydroxy-1-(3-phenylbutanoyl)piperidin-4-yl)methyl)-4-oxo-3,4-dihydropyrrolo[2,1-f][1,2,4]triazin-6-yl)-3-methylurea] | 0.2 to 1
O=C(Nc1cc2c(=O)n(CC3(O)CCN(C(=O)C4CC4)CC3)cnn2c1)c1csc(-c2ccccc2)n1 [Compound I-112, N-(3-((1-(cyclopropanecarbonyl)-4-hydroxypiperidin-4-yl)methyl)-4-oxo-3,4-dihydropyrrolo[2,1-f][1,2,4]triazin-6-yl)-2-phenylthiazole-4-carboxamide] | 1 to 10
O=C(c1ccc(-c2ccc3ncnn3c2)cc1)N1CCC(O)(Cn2cnn3cccc3c2=O)CC1 [Compound I-48, 3-((1-(4-([1,2,4]triazolo[1,5-a]pyridin-6-yl)benzoyl)-4-hydroxypiperidin-4-yl)methyl)pyrrolo[2,1-f][1,2,4]triazin-4(3H)-one] | > 10
Cc1ccc2c(=O)n(CC3(O)CCN(C(=O)C(C)Cc4ccccc4)CC3)cnn12 (centres unmarked) [Compound I-77, 3-((4-hydroxy-1-(2-methyl-3-phenylpropanoyl)piperidin-4-yl)methyl)-7-methylpyrrolo[2,1-f][1,2,4]triazin-4(3H)-one] | 1 to 10
O=C(c1ccc(Cn2nnc3ccccc32)cc1)N1CCC(O)(Cn2cnn3cccc3c2=O)CC1 [Compound I-68, 3-((1-(4-((1H-benzo[d][1,2,3]triazol-1-yl)methyl)benzoyl)-4-hydroxypiperidin-4-yl)methyl)pyrrolo[2,1-f][1,2,4]triazin-4(3H)-one] | 1 to 10
CC(CC(=O)N1CCC(O)(Cn2cnn3cccc3c2=O)CC1)n1cccc1 (centres unmarked) [Compound I-57, 3-((1-(3-(1H-pyrrol-1-yl)butanoyl)-4-hydroxypiperidin-4-yl)methyl)pyrrolo[2,1-f][1,2,4]triazin-4(3H)-one] | < 0.2
O=C(c1cccc(-c2ccsc2)c1)N1CCC(O)(Cn2cnn3cccc3c2=O)CC1 [Compound I-28, 3-((4-hydroxy-1-(3-(thiophen-3-yl)benzoyl)piperidin-4-yl)methyl)pyrrolo[2,1-f][1,2,4]triazin-4(3H)-one] | > 10
O=C(c1cccc(-c2ccc3c(c2)OCO3)c1)N1CCC(O)(Cn2cnn3cccc3c2=O)CC1 [Compound I-5, 3-((1-(3-(benzo[d][1,3]dioxol-5-yl)benzoyl)-4-hydroxypiperidin-4-yl)methyl)pyrrolo[2,1-f][1,2,4]triazin-4(3H)-one] | 1 to 10
O=C(c1ccccc1-c1cccc(F)c1)N1CCC(O)(Cn2cnn3cccc3c2=O)CC1 [Compound I-4, 3-((1-(3′-fluoro-[1,1′-biphenyl]-2-carbonyl)-4-hydroxypiperidin-4-yl)methyl)pyrrolo[2,1-f][1,2,4]triazin-4(3H)-one] | > 10
NC(=O)c1ccc(-c2cccc(C(=O)N3CCC(O)(Cn4cnn5cccc5c4=O)CC3)c2)cc1 [Compound I-16, 3′-(4-hydroxy-4-((4-oxopyrrolo[2,1-f][1,2,4]triazin-3(4H)-yl)methyl)piperidine-1-carbonyl)-[1,1′-biphenyl]-4-carboxamide] | 1 to 10
O=C(c1cccc(-c2ccc(C(F)(F)F)cc2)c1)N1CCC(O)(Cn2cnn3cccc3c2=O)CC1 [Compound I-15, 3-((4-hydroxy-1-(4′-(trifluoromethyl)-[1,1′-biphenyl]-3-carbonyl)piperidin-4-yl)methyl)pyrrolo[2,1-f][1,2,4]triazin-4(3H)-one] | > 10
C=C(C)C(=O)Nc1ccccc1-c1ccc(C(=O)N2CCC(O)(Cn3cnn4cccc4c3=O)CC2)cc1 [Compound I-114, N-(4′-(4-hydroxy-4-((4-oxopyrrolo[2,1-f][1,2,4]triazin-3(4H)-yl)methyl)piperidine-1-carbonyl)-[1,1′-biphenyl]-2-yl)methacrylamide] | 1 to 10
CC(CC(=O)N1CCC(O)(Cn2cnn3cc(Cl)cc3c2=O)CC1)c1ccccc1 (centres unmarked) [Compound I-49, 6-chloro-3-((4-hydroxy-1-(3-phenylbutanoyl)piperidin-4-yl)methyl)pyrrolo[2,1-f][1,2,4]triazin-4(3H)-one] | 1 to 10
C[C@H](CC(=O)N1CCC(O)(Cn2cnn3cccc3c2=O)CC1)c1ccccc1 [Compound I-56, (R)-3-((4-hydroxy-1-(3-phenylbutanoyl)piperidin-4-yl)methyl)pyrrolo[2,1-f][1,2,4]triazin-4(3H)-one] | < 0.2
O=C(NCc1ccccc1F)Nc1cc2c(=O)n(CC3(O)CCN(C(=O)C4CC4)CC3)cnn2c1 [Compound I-94, 1-(3-((1-(cyclopropanecarbonyl)-4-hydroxypiperidin-4-yl)methyl)-4-oxo-3,4-dihydropyrrolo[2,1-f][1,2,4]triazin-6-yl)-3-(2-fluorobenzyl)urea] | > 10
O=C(NCc1ccc(F)cc1)Nc1cc2c(=O)n(CC3(O)CCN(C(=O)C4CC4)CC3)cnn2c1 [Compound I-87, 1-(3-((1-(cyclopropanecarbonyl)-4-hydroxypiperidin-4-yl)methyl)-4-oxo-3,4-dihydropyrrolo[2,1-f][1,2,4]triazin-6-yl)-3-(4-fluorobenzyl)urea] | > 10
CCC(Cc1ccccc1)C(=O)N1CCC(O)(Cn2cnn3cccc3c2=O)CC1 (centres unmarked) [Compound I-60, 3-((1-(2-benzylbutanoyl)-4-hydroxypiperidin-4-yl)methyl)pyrrolo[2,1-f][1,2,4]triazin-4(3H)-one] | 1 to 10
O=C(c1ccccc1)c1ccc(C(=O)N2CCC(O)(Cn3cnn4cccc4c3=O)CC2)cc1 [Compound I-71, 3-((1-(4-benzoylbenzoyl)-4-hydroxypiperidin-4-yl)methyl)pyrrolo[2,1-f][1,2,4]triazin-4(3H)-one] | 1 to 10
O=C(c1ccc(-c2ccccc2)cc1)N1CCC(O)(Cn2cnn3cccc3c2=O)CC1 [Compound I-36, 3-((1-([1,1′-biphenyl]-4-carbonyl)-4-hydroxypiperidin-4-yl)methyl)pyrrolo[2,1-f][1,2,4]triazin-4(3H)-one] | > 10
Cc1ccc(-c2cccc(C(=O)N3CCC(O)(Cn4cnn5cccc5c4=O)CC3)c2)s1 [Compound I-20, 3-((4-hydroxy-1-(3-(5-methylthiophen-2-yl)benzoyl)piperidin-4-yl)methyl)pyrrolo[2,1-f][1,2,4]triazin-4(3H)-one] | > 10
